tested on: cattle isolates; assay: Test of antibiotic resistance in cattle isolates towards various antibiotics (share of isolates per category); type: cell-based, lactic acid bacteria (LAB); settings: share of the 19 cattle isolates
Excerpt: The following are examples of types of drugs that would be included in the three categories: Category I: quinolones, vancomycin, dalfopristin/quinupristin, third generation cephalosporins; Category II: ampicillin, first and second generation cephalosporins, erythromycin, trimethoprim/sulfamethoxazole; and Category III: inophores (monensin) and polymixins (Polymixin B and colistin). […] A commercial antimicrobial susceptibility test kit-Etest (AB Biodisk, North America Inc., Piscatway, N.J.) was used to determine the minimum inhibitory concentrations (MIC) of the antibiotics for the isolates selected. Etest strips containing a predefined exponential gradient of a particular antibiotic were applied to agar plates containing Mueller Hinton Agar (Difco) pre-inoculated with an overnight culture of the given bacteria (inoculum of 0.5 McFarland turbidity in 0.85% NaCl). The agar plates with the strips were immediately incubated at 37° C. for 16-20 hours, when bacterial growth became distinctly visible. After incubation, MIC values (μg/ml) were read where the inhibition ellipse (centered along the strip) intersected the scale at the edge of the strip. The susceptibility categorization of organisms towards a specific antibiotic was provided in the Etest antibiotic supplements for each agent and was used to examine the susceptibility of lactic acid bacteria (LAB) isolates. Based on the categorization, MIC for a particular organism was reported as susceptible (S), intermediate (I), or resistant (R). When growth occurred along the entire strip, i.e. no inhibition ellipse was seen, the MIC was reported as greater than (>H) the highest value on the reading scale.

Structure (SMILES) | % Intermediate [%] | % Resistant [%] | % Susceptible [%]
CC1(C)S[C@@H]2[C@H](NC(=O)[C@H](N)c3ccccc3)C(=O)N2[C@H]1C(=O)O [AM, Ampicillin] | 0.0 | 10.0 | 90.0
CC[C@H]1OC(=O)[C@H](C)[C@@H](O[C@H]2C[C@@](C)(OC)[C@@H](O)[C@H](C)O2)[C@H](C)[C@@H](O[C@@H]2O[C@H](C)C[C@H](N(C)C)[C@H]2O)[C@](C)(O)C[C@@H](C)C(=O)[C@H](C)[C@@H](O)[C@]1(C)O [EM, Erythromycin] | 5.0 | 21.0 | 74.0
Cc1c(F)c(N2CCNC(C)C2)cc2c1c(=O)c(C(=O)O)cn2C1CC1 (stereo not shown) [GP, Grepafloxacin] | 10.0 | 58.0 | 32.0
C[C@H]1COc2c(N3CCN(C)CC3)c(F)cc3c(=O)c(C(=O)O)cn1c23 [LE, Levofloxacin] | 37.0 | 5.0 | 58.0
CN(C)[C@@H]1C(O)=C(C(N)=O)C(=O)[C@@]2(O)C(O)=C3C(=O)c4c(O)cccc4[C@@](C)(O)[C@H]3C[C@@H]12 [TC, Tetracycline] | 0.0 | 31.0 | 69.0

same assay, conditions: share of the 19 cattle isolates; listed as grepafloxacin

Structure (SMILES) | % Resistant [%]
Cc1c(F)c(N2CCNC(C)C2)cc2c1c(=O)c(C(=O)O)cn2C1CC1 (stereo not shown) [GP, Grepafloxacin] | 58

— US7323166B2, “Lactic acid bacteria cultures that inhibit food-borne pathogens” (Board of Regents University of Nebraska, priority 2002, dated 2008)
